Read-outs that look alike come from different tables or passages of the source.
Experiments:
human LXRalpha LBD = biological target: T1, human LXRalpha LBD (Homo sapiens, UniProt Q13133, A196R); assay: In vitro screening for LXR binding to coactivator Tif2 (LANCE TR-FRET); format: biochemical
T1 construct: from amino acids 155 of hLXRalpha to 447; made in house; host or cells: SF9 insect cells (baculovirus) for LXRalpha LBD; E. coli BL21 for Tif2 fragment
T1 sequence (Q13133 155-447 A196R): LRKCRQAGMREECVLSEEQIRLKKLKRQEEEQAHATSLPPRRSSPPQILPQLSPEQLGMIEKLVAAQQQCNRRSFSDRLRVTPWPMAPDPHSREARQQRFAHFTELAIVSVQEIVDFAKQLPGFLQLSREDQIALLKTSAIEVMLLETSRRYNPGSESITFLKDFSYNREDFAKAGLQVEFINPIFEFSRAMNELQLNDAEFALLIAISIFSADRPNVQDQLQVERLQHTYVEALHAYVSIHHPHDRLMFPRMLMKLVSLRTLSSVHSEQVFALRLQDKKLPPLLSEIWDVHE
T1 sequence (Q15596 548-878 partner limits assumed): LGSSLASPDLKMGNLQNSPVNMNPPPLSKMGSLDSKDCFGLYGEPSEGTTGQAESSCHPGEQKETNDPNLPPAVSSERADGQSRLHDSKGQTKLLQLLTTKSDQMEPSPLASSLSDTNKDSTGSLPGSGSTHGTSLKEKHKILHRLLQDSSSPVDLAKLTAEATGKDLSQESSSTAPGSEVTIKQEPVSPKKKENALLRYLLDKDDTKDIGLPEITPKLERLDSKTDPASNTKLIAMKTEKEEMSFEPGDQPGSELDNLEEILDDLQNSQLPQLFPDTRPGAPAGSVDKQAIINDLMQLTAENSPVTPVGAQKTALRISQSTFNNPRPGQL
Excerpt: For screening purposes a GST and 6× His fusion of the LBD (from amino acids 155 of hLXRalpha to 447) of human LXRalpha was constructed by first cloning a Gateway cassette (Invitrogen) in frame into the Sma I site of the pAGGHLT Polylinker (Pharmingen). Then a PCR fragment specifically amplified from human liver cDNA was cloned into the resulting pACGHLT-GW following the manufacturers instructions for Gateway cloning (Invitrogen) to yield pACGHLT-GW-hLXRalphaLBD.
100% sequence integrity of all recombinant products was verified by sequencing. Recombinant Baculovirus was constructed from pACGHLT-GW-hLXRalphaLBD using the Pharmingen Baculovirus Expression vector system according to instructions of the manufacturer. Monolayer cultures of SF9 cells were infected by the virus as recommended by Pharmingen or 200 ml cultures of 1×10^6 cells/ml grown in 2 liter Erlenmeyer flasks on an orbital shaker at 30 rpm were infected by 10 ml of same virus stock. In both cases cells were harvested 3 days after infection. All cell growth was performed in Gibco SF900 II with Glutamine (Invitrogen) medium without serum supplementation at 28° C. Since SF9 cells contain significant amounts of endogenous 30 GST, purification was performed via His and not via GST affinity chromatography.
To this end instructions of Pharmingen for purification of recombinant His tagged proteins from SF9 cells were followed with the following modifications: All detergents were omitted from the buffers and cells were lysed on ice by 5 subsequent sonication pulses using a sonicator needle at maximum power.
All eluates were dialyzed against 20 mM Tris/HCl pH 6.8, 300 mM KCl; 5 mM MgCl2;1 mM DTT; 0.2 mM PMSF; 10% Glycerol. A typical dialyzed eluate fraction contained the fusion protein at a purity of more than 80%. Total protein concentration was 0.1-0.3 mg/ml.
For E. coli expression of a NR coactivator, pDest17-hTif2BD expressing an NR interaction domain from amino acids 548-878 of human Tif2 (Acc. No: XM011633 Ref Seq) tagged by 6 N-terminal His residues was constructed. Therefore, a PCR fragment specifically amplified from human liver cDNA was subcloned into pDest 17 (Invitrogen) following the manufacturers instructions for Gateway cloning (Invitrogen). Primers used for Amplification were: […]
For E. coli expression plasmid DNA was transformed into chemically competent E. coli BL21 (Invitrogen, USA) and cells were grown to an OD600 of 0.4-0.7 before expression was induced by addition of 0.5 mM IPTG according instructions of the manufacturer (Invitrogen). After induction for 8 hours at 30° C. cells were harvested by centrifugation for 10 minutes at 5000×g. Fusion proteins were affinity purified using Ni—NTA Agarose (QIAGEN) according to the instructions of the manufacturer.
Recombinant Tif2 construct was dialyzed against 20 mM Tris/HCL pH 7.9; 60 mM KCl; 5 mM MgCl2; 1 mM DTT, 0.2 mM PMSF; 10% glycerol. A typical dialyzed eluate fraction contained the fusion protein at a purity of more than 80%. Total protein concentration was 0.1-0.3 mg/ml.
The TIF2 fragment was subsequently biotinylated by addition of 5-40 ul/ml Tif2 fraction of a Biotinamidocaproate N-Hydroxysuccinimide-ester (Sigma) solution (20 mg/ml in DMSO). Overhead rotating samples were incubated for 2 hours at room temperature. Unincorporated label was then separated using G25 Gel filtration chromatography (Pharmacia Biotech, Sweden). Protein containing fractions from the column were pooled and tested for activity in the assay as described below.
For screening of compound libraries as provided for by the methods shown below in the examples for substances which influence the LXR/Tif 2 interaction, the PerkinElmer LANCE technology is applied. This method relies on the binding dependent energy transfer from a donor to an acceptor fluorophore attached to the binding partners of interest. […]

[1] = test system: ABCA1 and ABCG1 in THP-1 cells; assay: mRNA content of LXR target genes ABCA1 and ABCG1 in THP-1 cells (TaqMan); format: cell-based
Description: THP-1 (3×10^5 cells per dish) cells were seeded in […] RPMI-1640 medium (ATTC, Cat. No. 30-2001) containing 10% FCS (GIBCO) and 100 nM TPA and cultivated at 37° C. in 5% CO2 for 24 or 48 hours. HepG2 (4.5×10^5 cells per dish) were seeded in 24 well dishes in 3 ml DMEM Medium containing 10% FCS (GIBCO) and cultivated at 37° C. in 5% CO2 for 48 hours as indicated in FIG. 8B or until they are approx. 60% confluent.
The medium was then removed and replaced with medium containing 10% charcoal/stripped FCS (Hyclone) for 12 h.
LXR compounds are dissolved in DMSO, with the final solvent concentration never exceeding 0.125%. All treatments are done in triplicates and experiments repeated twice. Total RNA is extracted using the Qiagen Rneasy Mini Kit and treated with DNase (DNA free kit, Ambion). RNA is reverse transcribed with Oligo (dT) primer and real-time reverse transcription PCR (TaqMan) is performed using the ABI Prism 7900HT Sequence Detection System and reagents supplied by Applied Biosystems. mRNA steady state levels are normalised to H3 histone (H3F3A) expression levels.
The sequences of forward primers, reverse primers and TaqMan probes are as follows

## C=CCn1c(N2C3CC(C)(C)CC2(C)C3)nc2ccc(I)cc2c1=O (stereo not shown) [formula (9)]
Human LXRalpha LBD; FRET assay, read-out: EC50 at LXR (half-maximal effective concentration)
  EC50: 2000 nM
[1]
  selectivity of upregulation of ABCA1 and ABCG1 in THP-1 cells versus FAS and SREBP-1c in HepG2 cells: selective upregulation
[1]; listed as TR1040001892
  selectivity of upregulation of ABCA1 and ABCG1 in THP-1 cells versus FAS and SREBP-1c in HepG2 cells: selective transcriptional effect

## CC(C)n1c(N2C3CC(C)(C)CC2(C)C3)nc2ccc(I)cc2c1=O (stereo not shown) [formula (10)]
Human LXRalpha LBD
  active as agonist / partial agonist of the LXR human nuclear receptor: active as partial agonist
[1]
  selectivity of upregulation of ABCA1 and ABCG1 in THP-1 cells versus FAS and SREBP-1c in HepG2 cells: selective upregulation
[1]; listed as TR1040011382
  selectivity of upregulation of ABCA1 and ABCG1 in THP-1 cells versus FAS and SREBP-1c in HepG2 cells: selective transcriptional effect

## CCCn1c(N2[C@@H]3CC(C)(C)C[C@@]2(C)C3)nc2cccc(F)c2c1=O [formula (11)]
Human LXRalpha LBD
  active as agonist / partial agonist of the LXR human nuclear receptor: active as partial agonist
[1]
  selectivity of upregulation of ABCA1 and ABCG1 in THP-1 cells versus FAS and SREBP-1c in HepG2 cells: reduced selectivity

## C=CCn1c(N2[C@@H]3CC(C)(C)C[C@@]2(C)C3)nc2cccc(F)c2c1=O [formula (12)]
Human LXRalpha LBD
  active as agonist / partial agonist of the LXR human nuclear receptor: active as partial agonist
[1]
  selectivity of upregulation of ABCA1 and ABCG1 in THP-1 cells versus FAS and SREBP-1c in HepG2 cells: reduced selectivity
